Assay results from the NIST ThermoML archive (doi:10.1016/j.jct.2014.05.016).
± gives the expanded uncertainty stated by the source. Blank lines part the entries; values can stand above or below the molecule they belong to.

How the values were obtained:
[1] = xn = mol fraction of the nth substance listed; settings: 100 kPa, Liquid; for viscosity: Concentric cylinders viscometry; for mass density: Vibrating tube method
[2] = 100 kPa, Liquid; for viscosity: Concentric cylinders viscometry; for mass density: Vibrating tube method

SMILES: CCCC[n+]1ccccc1.F[B-](F)(F)F [1-butylpyridinium tetrafluoroborate] + C[n+]1ccn(CCO)c1.F[B-](F)(F)F
viscosity ([1]; 293.15 K, x2 = 0): 228.9 ± 19 mPa·s | mass density ([1]; 293.15 K, x2 = 0): 1216.6 ± 1.1 kg/m3 | viscosity ([1]; 298.15 K, x2 = 0): 166.9 ± 14 mPa·s | mass density ([1]; 298.15 K, x2 = 0): 1213.1 ± 1.1 kg/m3 | viscosity ([1]; 303.15 K, x2 = 0): 124.5 ± 10 mPa·s | mass density ([1]; 303.15 K, x2 = 0): 1209.6 ± 1.1 kg/m3 | viscosity ([1]; 308.15 K, x2 = 0): 94.97 ± 7.6 mPa·s | mass density ([1]; 308.15 K, x2 = 0): 1206.2 ± 1.1 kg/m3 | viscosity ([1]; 313.15 K, x2 = 0): 73.94 ± 5.9 mPa·s | mass density ([1]; 313.15 K, x2 = 0): 1202.8 ± 1.1 kg/m3 | viscosity ([1]; 318.15 K, x2 = 0): 58.64 ± 4.7 mPa·s | mass density ([1]; 318.15 K, x2 = 0): 1199.4 ± 1.1 kg/m3 | viscosity ([1]; 323.15 K, x2 = 0): 47.29 ± 3.8 mPa·s | mass density ([1]; 323.15 K, x2 = 0): 1196 ± 1.1 kg/m3 | viscosity ([1]; 328.15 K, x2 = 0): 38.71 ± 3.1 mPa·s | mass density ([1]; 328.15 K, x2 = 0): 1192.6 ± 1.1 kg/m3 | viscosity ([1]; 333.15 K, x2 = 0): 32.12 ± 2.6 mPa·s | mass density ([1]; 333.15 K, x2 = 0): 1189.2 ± 1.1 kg/m3 | viscosity ([1]; 338.15 K, x2 = 0): 26.98 ± 2.2 mPa·s | mass density ([1]; 338.15 K, x2 = 0): 1185.8 ± 1.1 kg/m3 | viscosity ([1]; 343.15 K, x2 = 0): 22.97 ± 1.8 mPa·s | mass density ([1]; 343.15 K, x2 = 0): 1182.5 ± 1.1 kg/m3

SMILES: CCCCn1cc[n+](C)c1.F[B-](F)(F)F [1-butyl-3-methylimidazolium tetrafluoroborate]
viscosity ([2]; 293.15 K): 141.1 ± 12 mPa·s | mass density ([2]; 293.15 K): 1204 ± 1.1 kg/m3 | viscosity ([2]; 298.15 K): 107.5 ± 8.7 mPa·s | mass density ([2]; 298.15 K): 1200.5 ± 1.1 kg/m3 | viscosity ([2]; 303.15 K): 83.48 ± 6.7 mPa·s | mass density ([2]; 303.15 K): 1197 ± 1.1 kg/m3 | viscosity ([2]; 308.15 K): 65.97 ± 5.3 mPa·s | mass density ([2]; 308.15 K): 1193.4 ± 1.1 kg/m3 | viscosity ([2]; 313.15 K): 53 ± 4.2 mPa·s | mass density ([2]; 313.15 K): 1189.9 ± 1.1 kg/m3 | viscosity ([2]; 318.15 K): 43.21 ± 3.5 mPa·s | mass density ([2]; 318.15 K): 1186.3 ± 1.1 kg/m3 | viscosity ([2]; 323.15 K): 35.7 ± 2.9 mPa·s | mass density ([2]; 323.15 K): 1182.8 ± 1.1 kg/m3 | viscosity ([2]; 328.15 K): 29.86 ± 2.4 mPa·s | mass density ([2]; 328.15 K): 1179.3 ± 1.1 kg/m3 | viscosity ([2]; 333.15 K): 25.26 ± 2 mPa·s | mass density ([2]; 333.15 K): 1175.8 ± 1.1 kg/m3 | viscosity ([2]; 338.15 K): 21.59 ± 1.7 mPa·s | mass density ([2]; 338.15 K): 1172.3 ± 1.1 kg/m3 | viscosity ([2]; 343.15 K): 18.62 ± 1.5 mPa·s | mass density ([2]; 343.15 K): 1168.9 ± 1.1 kg/m3

SMILES: C[n+]1ccn(CCO)c1.F[B-](F)(F)F [1-(2-hydroxyethyl)-3-methylimidazolium tetrafluoroborate]
viscosity ([2]; 293.15 K): 153.6 ± 12 mPa·s | mass density ([2]; 293.15 K): 1362.4 ± 1.1 kg/m3 | viscosity ([2]; 298.15 K): 115.1 ± 9.3 mPa·s | mass density ([2]; 298.15 K): 1358.7 ± 1.1 kg/m3 | viscosity ([2]; 303.15 K): 87.98 ± 7.1 mPa·s | mass density ([2]; 303.15 K): 1354.8 ± 1.1 kg/m3 | viscosity ([2]; 308.15 K): 68.59 ± 5.5 mPa·s | mass density ([2]; 308.15 K): 1351.2 ± 1.1 kg/m3 | viscosity ([2]; 313.15 K): 54.81 ± 4.4 mPa·s | mass density ([2]; 313.15 K): 1347.4 ± 1.1 kg/m3 | viscosity ([2]; 318.15 K): 44.44 ± 3.6 mPa·s | mass density ([2]; 318.15 K): 1343.7 ± 1.1 kg/m3 | viscosity ([2]; 323.15 K): 36.5 ± 2.9 mPa·s | mass density ([2]; 323.15 K): 1340.1 ± 1.1 kg/m3 | viscosity ([2]; 328.15 K): 30.46 ± 2.4 mPa·s | mass density ([2]; 328.15 K): 1336.4 ± 1.1 kg/m3 | viscosity ([2]; 333.15 K): 25.73 ± 2.1 mPa·s | mass density ([2]; 333.15 K): 1332.8 ± 1.1 kg/m3 | viscosity ([2]; 338.15 K): 21.98 ± 1.8 mPa·s | mass density ([2]; 338.15 K): 1329.2 ± 1.1 kg/m3 | viscosity ([2]; 343.15 K): 18.95 ± 1.5 mPa·s | mass density ([2]; 343.15 K): 1325.5 ± 1.1 kg/m3

SMILES: CCCC[n+]1ccccc1.F[B-](F)(F)F [1-butylpyridinium tetrafluoroborate]
viscosity ([2]; 293.15 K): 228.9 ± 19 mPa·s | mass density ([2]; 293.15 K): 1216.6 ± 1.1 kg/m3 | viscosity ([2]; 298.15 K): 166.9 ± 14 mPa·s | mass density ([2]; 298.15 K): 1213.1 ± 1.1 kg/m3 | viscosity ([2]; 303.15 K): 124.5 ± 10 mPa·s | mass density ([2]; 303.15 K): 1209.6 ± 1.1 kg/m3 | viscosity ([2]; 308.15 K): 94.97 ± 7.6 mPa·s | mass density ([2]; 308.15 K): 1206.2 ± 1.1 kg/m3 | viscosity ([2]; 313.15 K): 73.94 ± 5.9 mPa·s | mass density ([2]; 313.15 K): 1202.8 ± 1.1 kg/m3 | viscosity ([2]; 318.15 K): 58.64 ± 4.7 mPa·s | mass density ([2]; 318.15 K): 1199.4 ± 1.1 kg/m3 | viscosity ([2]; 323.15 K): 47.29 ± 3.8 mPa·s | mass density ([2]; 323.15 K): 1196 ± 1.1 kg/m3 | viscosity ([2]; 328.15 K): 38.71 ± 3.1 mPa·s | mass density ([2]; 328.15 K): 1192.6 ± 1.1 kg/m3 | viscosity ([2]; 333.15 K): 32.12 ± 2.6 mPa·s | mass density ([2]; 333.15 K): 1189.2 ± 1.1 kg/m3 | viscosity ([2]; 338.15 K): 26.98 ± 2.2 mPa·s | mass density ([2]; 338.15 K): 1185.8 ± 1.1 kg/m3 | viscosity ([2]; 343.15 K): 22.97 ± 1.8 mPa·s | mass density ([2]; 343.15 K): 1182.5 ± 1.1 kg/m3

Other lines, results leading:

viscosity ([1]; 293.15 K, x1 = 1): 141.1 ± 12 mPa·s | mass density ([1]; 293.15 K, x1 = 1): 1204 ± 1.1 kg/m3 | viscosity ([1]; 298.15 K, x1 = 1): 107.5 ± 8.7 mPa·s | mass density ([1]; 298.15 K, x1 = 1): 1200.5 ± 1.1 kg/m3 | viscosity ([1]; 303.15 K, x1 = 1): 83.48 ± 6.7 mPa·s | mass density ([1]; 303.15 K, x1 = 1): 1197 ± 1.1 kg/m3 | viscosity ([1]; 308.15 K, x1 = 1): 65.97 ± 5.3 mPa·s | mass density ([1]; 308.15 K, x1 = 1): 1193.4 ± 1.1 kg/m3 | viscosity ([1]; 313.15 K, x1 = 1): 53 ± 4.2 mPa·s | mass density ([1]; 313.15 K, x1 = 1): 1189.9 ± 1.1 kg/m3 | viscosity ([1]; 318.15 K, x1 = 1): 43.21 ± 3.5 mPa·s | mass density ([1]; 318.15 K, x1 = 1): 1186.3 ± 1.1 kg/m3 | viscosity ([1]; 323.15 K, x1 = 1): 35.7 ± 2.9 mPa·s | mass density ([1]; 323.15 K, x1 = 1): 1182.8 ± 1.1 kg/m3 | viscosity ([1]; 328.15 K, x1 = 1): 29.86 ± 2.4 mPa·s | mass density ([1]; 328.15 K, x1 = 1): 1179.3 ± 1.1 kg/m3 | viscosity ([1]; 333.15 K, x1 = 1): 25.26 ± 2 mPa·s | mass density ([1]; 333.15 K, x1 = 1): 1175.8 ± 1.1 kg/m3 | viscosity ([1]; 338.15 K, x1 = 1): 21.59 ± 1.7 mPa·s | mass density ([1]; 338.15 K, x1 = 1): 1172.3 ± 1.1 kg/m3 | viscosity ([1]; 343.15 K, x1 = 1): 18.62 ± 1.5 mPa·s | mass density ([1]; 343.15 K, x1 = 1): 1168.9 ± 1.1 kg/m3
SMILES: CCCCn1cc[n+](C)c1.F[B-](F)(F)F [1-butyl-3-methylimidazolium tetrafluoroborate] + CCCC[n+]1ccccc1.F[B-](F)(F)F

viscosity ([1]; 293.15 K, x2 = 0): 141.1 ± 12 mPa·s | mass density ([1]; 293.15 K, x2 = 0): 1204 ± 1.1 kg/m3 | viscosity ([1]; 298.15 K, x2 = 0): 107.5 ± 8.7 mPa·s | mass density ([1]; 298.15 K, x2 = 0): 1200.5 ± 1.1 kg/m3 | viscosity ([1]; 303.15 K, x2 = 0): 83.48 ± 6.7 mPa·s | mass density ([1]; 303.15 K, x2 = 0): 1197 ± 1.1 kg/m3 | viscosity ([1]; 308.15 K, x2 = 0): 65.97 ± 5.3 mPa·s | mass density ([1]; 308.15 K, x2 = 0): 1193.4 ± 1.1 kg/m3 | viscosity ([1]; 313.15 K, x2 = 0): 53 ± 4.2 mPa·s | mass density ([1]; 313.15 K, x2 = 0): 1189.9 ± 1.1 kg/m3 | viscosity ([1]; 318.15 K, x2 = 0): 43.21 ± 3.5 mPa·s | mass density ([1]; 318.15 K, x2 = 0): 1186.3 ± 1.1 kg/m3 | viscosity ([1]; 323.15 K, x2 = 0): 35.7 ± 2.9 mPa·s | mass density ([1]; 323.15 K, x2 = 0): 1182.8 ± 1.1 kg/m3 | viscosity ([1]; 328.15 K, x2 = 0): 29.86 ± 2.4 mPa·s | mass density ([1]; 328.15 K, x2 = 0): 1179.3 ± 1.1 kg/m3 | viscosity ([1]; 333.15 K, x2 = 0): 25.26 ± 2 mPa·s | mass density ([1]; 333.15 K, x2 = 0): 1175.8 ± 1.1 kg/m3 | viscosity ([1]; 338.15 K, x2 = 0): 21.59 ± 1.7 mPa·s | mass density ([1]; 338.15 K, x2 = 0): 1172.3 ± 1.1 kg/m3 | viscosity ([1]; 343.15 K, x2 = 0): 18.62 ± 1.5 mPa·s | mass density ([1]; 343.15 K, x2 = 0): 1168.9 ± 1.1 kg/m3
SMILES: CCCCn1cc[n+](C)c1.F[B-](F)(F)F [1-butyl-3-methylimidazolium tetrafluoroborate] + C[n+]1ccn(CCO)c1.F[B-](F)(F)F
